From US10899759B2, “Positive allosteric modulators of the muscarinic acetylcholine receptor M1” (Vanderbilt University, priority 2016, dated 2021)

What was measured:
[1] = Brain tissue distribution study in Sprague-Dawley rat (IV cassette); assay type: in vivo; conditions: male, IV cassette 0.2 mg/kg per compound, 0.25 h post-dose; for Kp uu at 0.25 h: brain/plasma (unbound), unbound distribution partition coefficient; for Kp at 0.25 h: brain/plasma, distribution partition coefficient
Description: The plasma protein and nonspecific brain homogenate binding of certain compounds were determined in plasma or brain homogenate using contemporary equilibrium dialysis and employing HTDialysis™ Teflon dialysis chambers and cellulose membranes (MWCO 12-14 K) from HTDialysis (Gales Ferry, Conn.). Brain tissue homogenate was prepared by diluting one volume whole brain tissue with three volumes of phosphate buffer (pH 7.4). The mixture was then subjected to mechanical homogenation employing a Mini-Beadbeater™ and 1.0 mm Zirconia/Silica Beads from BioSpec Products (Bartlesville, Okla.). Plasma or brain homogenate was fortified with test article and mixed thoroughly for a final concentration of 5 μM for plasma and 1 μM for brain homogenate. Subsequently, 100 μL of the plasma- or brain homogenate-compound mixture was transferred to one side of a dialysis chamber with an accompanying 100 μL of phosphate buffer (pH 7.4) in the opposite side of the chamber. The plate block was sealed and incubated for 6 hours (37° C.) with shaking. Upon completion, aliquots from each chamber were matrix-matched with either plasma or brain homogenate (1:1, buffer side) or buffer (1:1, plasma or brain homogenate side) in a new 96-well plate, at which time the proteins and cell debris/membranes (for brain homogenate) were precipitated with ice-cold acetonitrile containing an internal standard (carbamazepine, 50 nM). The plate was centrifuged (3000 rcf, 10 min) and supernatants diluted (1:1, v/v) via transfer into a fresh 96-well plate containing deionized H2O; the plate was sealed in preparation for LC/MS/MS bioanalysis. The assay was performed in triplicate for each compound.
A cassette of compounds (n=5/cassette) were formulated from 10 mmol L^−1 solutions prepared in DMSO. In order to reduce the absolute volume of DMSO that was administered, the compounds were combined and diluted with ethanol and PEG 400 to achieve a final concentration of 0.4 mg mL^−1 for each compound (2 mg mL^−1 total) administered in each cassette; the maximal dosing volume was 0.5 mL kg^−1 of each animal's body mass. The final dosing solutions consisted of approximately 10% ethanol, 40% PEG400, and 50% DMSO (v/v). Each cassette dose was administered IV via the jugular vein to one dual-cannulated (carotid artery and jugular vein) adult male Sprague-Dawley rat, each weighing between 250 and 350 g (Harlan, Indianapolis, Ind.) for a final dose of 0.2 mg kg^−1 per compound. Whole blood and dissected whole brains were collected at the time of euthanization (0.25 h post-dose), with the whole brain being removed and thoroughly rinsed with cold phosphate-buffered saline prior to freezing on dry ice. […]

[2] = molecular target: T1, human mAChR M1 (Homo sapiens, UniProt P11229); assay: mAChR M1 cell-based functional assay (calcium mobilization, Fluo-4, FDSS); conditions: CHO-K1 cells stably expressing hM1; for Emax: read-out: Human M1 Emax; for EC50: positive allosteric modulator activity as increase in the EC20 acetylcholine response
T1 construct: host or cells: CHO-K1
T1 sequence (P11229 1-460): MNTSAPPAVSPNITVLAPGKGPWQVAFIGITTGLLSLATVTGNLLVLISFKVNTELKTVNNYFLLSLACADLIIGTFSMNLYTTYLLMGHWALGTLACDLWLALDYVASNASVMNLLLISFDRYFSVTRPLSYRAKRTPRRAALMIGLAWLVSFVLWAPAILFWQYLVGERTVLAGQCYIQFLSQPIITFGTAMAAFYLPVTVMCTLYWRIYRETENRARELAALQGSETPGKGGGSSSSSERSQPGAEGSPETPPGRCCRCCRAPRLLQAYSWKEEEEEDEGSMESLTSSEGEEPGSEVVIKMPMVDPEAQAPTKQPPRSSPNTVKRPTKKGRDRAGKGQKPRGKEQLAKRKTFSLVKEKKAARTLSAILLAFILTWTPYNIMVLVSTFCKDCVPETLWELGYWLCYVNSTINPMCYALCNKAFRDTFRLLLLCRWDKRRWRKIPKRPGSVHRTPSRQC
Procedure, shortened: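 CHO-K1 cells stably expressing muscarinic receptor, loaded with Fluo-4; 11-point 1:3 compound series added and calcium flux read over 300 s at 1 Hz. Agonism from direct calcium rise, PAM activity as potentiation of EC20 acetylcholine, antagonism as decrease of EC80 acetylcholine; four-parameter logistic fits.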

[3] = system: C57Bl/6 mice; assay: Behavioral manifestations of seizure activity (modified Racine scoring); assay type: in vivo; conditions: 100 mg/kg i.p., monitored up to 3 hr for seizure behavior
Description: To evaluate induction of behavioral manifestation of seizure activity, C57Bl/6 mice received administration of vehicle or 100 mg/kg M1 PAM. Compounds were formulated in 10% Tween 80 (pH 7.0) at a concentration of 10 mg/ml and injected i.p. (n=3). Animals were monitored continuously and scored for behavioral manifestations of seizure activity at 5, 10, 15 and 30 min, and 1 and 3 hr. Behavioral manifestations of seizures were scored using a modified Racine scoring system (R. J. Racine, Modification of seizure activity by electrical stimulation. II. Motor seizure. Electroencephalogr. Clin. Neurophysiol. 32, 281 (March, 1972)). Briefly, a score of 0 represents no behavior alterations; score 1, immobility, mouth and facial movements, or facial clonus; score 2, head nodding, tail extension; score 3, forelimb clonus, repetitive movements; score 4, rearing and tonic clonic seizure; and score 5, continuous rearing and falling, severe generalized tonic clonic seizure.

Row | Compound | Emax ([2]; EC20 acetylcholine response) [%] | EC50 [2] [µM] | Kp uu at 0.25 h [1] | Kp at 0.25 h [1] | Adverse Effect in mice (100 mpk, i.p.) [3] | Human M1 Emax ([2]; EC20 acetylcholine response) [%]
1 | Cn1cc(-c2ccc(Cc3cc(C(=O)NC4CCOCC4)nc4c3ccn4C)cn2)cn1 [Compound 47, 1-methyl-4-[[6-(1-methylpyrazol-4-yl)-3-pyridyl]methyl]-N-tetrahydropyran-4-yl-pyrrolo[2,3-b]pyridine-6-carboxamide] | 83.8 | 0.18 | 0.32 | 0.28 | No | 
2 | 1-methyl-N-tetrahydropyran-4-yl-4-[(4-thiazol-2-ylphenyl)methyl]pyrrolo[2,3-b]pyridine-6-carboxamide [Compound 61] |  | 0.84 |  |  |  | 56.7
3 | O=C(NCC1CCOC1)c1cc(Cc2ccc(-n3cccn3)cc2)c2ccsc2n1 (centres unmarked) [Compound 79, 4-[(4-pyrazol-1-ylphenyl)methyl]-N-(tetrahydrofuran-3-ylmethyl)thieno[2,3-b]pyridine-6-carboxamide] | 65.6 | 2.08 |  |  |  | 

More lines, in order of falling EC50 [2], values ahead:

Row | Emax ([2]; EC20 acetylcholine response) [%] | EC50 [2] [µM] | Compound | Kp uu at 0.25 h [1] | Kp at 0.25 h [1] | Adverse Effect in mice (100 mpk, i.p.) [3] | Human M1 Emax ([2]; EC20 acetylcholine response) [%]
4 | 77.8 | 0.66 | Cn1ncc2c(Cc3ccc(-c4cscn4)cc3)cc(C(=O)NC3CC4(COC4)C3)nc21 [Compound 30, 1-methyl-N-(2-oxaspiro[3.3]heptan-6-yl)-4-[(4-thiazol-4-ylphenyl)methyl]pyrazolo[3,4-b]pyridine-6-carboxamide] |  |  |  | 
5 | 86.4 | 0.39 | Cc1nc(-c2ccc(Cc3cc(C(=O)NC4CCOCC4)nc4c3ccn4C)cc2)co1 [Compound 53, 1-methyl-4-[[4-(2-methyloxazol-4-yl)phenyl]methyl]-N-tetrahydropyran-4-yl-pyrrolo[2,3-b]pyridine-6-carboxamide] | 0.85 | 0.51 | No | 
6 | 69.6 | 0.39 | O=C(N[C@H]1CCOC1)c1cc(Cc2ccc(-n3cccn3)cc2)c2ccsc2n1 [Compound 77, 4-[(4-pyrazol-1-ylphenyl)methyl]-N-[(3S)-tetrahydrofuran-3-yl]thieno[2,3-b]pyridine-6-carboxamide] |  |  |  | 
7 | 60.8 | 0.16 | COCC(C)NC(=O)c1cc(Cc2ccc(-c3cnn(C)c3)nc2)c2ccsc2n1 (centres unmarked) [Compound 128, N-(2-methoxy-1-methyl-ethyl)-4-[[6-(1-methylpyrazol-4-yl)-3-pyridyl]methyl]thieno[2,3-b]pyridine-6-carboxamide] |  |  |  | 
